Results on 1 molecule are retold here after patent publication US11479616B2, “Method for preparing okra polygalacturonic acid having uric acid-lowering effect” (Institute of Biological and Medical Engineering, Guangdong …, priority 2020, dated 2022).

For assay [1], the system named is mice with high uric acid levels. The experiment in a line: Evaluation of uric acid-lowering effect in high uric acid mouse models (blood uric acid, blood creatinine, serum urea nitrogen). In kind it is in vivo, C57BL/6 mice. The note with it: 100 mg/kg of body weight, mean ± SD, n = 6. How it is done: (§1) C57BL/6 mice (16.7-20.4 g, 6-7 weeks old) were provided by the Guangdong Medical Laboratory Animal Center, and quarantined for 4 days before the trial. During the trial, the mice were kept in a house with stable conditions with a 12 h:12 h light-dark cycle and given ad libitum access to food and water.
The mice were divided according to their weights into a negative control group (normal mice), a model control group (mice with high uric acid levels), a positive control group (mice with high uric acid levels, administrated with allopurinol tablets), a low-dosage group (mice with high uric acid levels, […] acid), and a high-dosage group (mice with high uric acid levels, […]), six mice in each group. The mice of each group were treated with a corresponding solution through intragastric administration with a dosage of 20 mL per kg of body weight, wherein the mice of the positive control group were treated with a 5 mg/mL allopurinol solution, the mice of the negative control group and the model control group were treated with purified water, one administration per day. […] The mice were treated for 30 successive days.
Method for preparing OP1 samples: 45 mg of the okra polygalacturonic acid was weighed out and mixed well with a certain volume of purified water. The mixture was further added with purified water to a final volume of 4.5 mL to give a 10 mg/mL high-dosage solution, which shall be shaken well before used. 0.9 mL of the high-dosage solution was added with purified water to a final volume of 3.6 mL and mixed well to give a 2.5 mg/mL low-dosage solution, which shall be shaken well before used. […]
(§2) 3 hours after the last administration, the mice were anaesthetized using isoflurane, and blood was collected from each mouse by removing eyeballs. […] Blood uric acid levels, blood creatinine levels, and serum urea nitrogen levels were measured by an automatic biochemical analyzer, and XOD activities were determined using an ELISA kit.

The test system of assay [2] is XOD. The experiment in a line: Serum XOD activity of high uric acid mouse models, determined using an ELISA kit. The format is in vivo, C57BL/6 mice. The note with it: high uric acid mice, 100 mg/kg of body weight, intragastric, 30 days, mean ± SD, n = 6. How it is done: as §1
The mice were divided according to their weights into a negative control group (normal mice), a model control group (mice with high uric acid levels), a positive control group (mice with high uric acid levels, administrated with allopurinol tablets), a low-dosage group (mice with high uric acid levels, administrated with 50 mg/kg of the okra polygalacturonic acid), and a high-dosage group (mice with high uric acid levels, administrated with 200 mg/kg of the okra polygalacturonic acid), six mice in each group. […]
as §2

Regarding `Oc1ncnc2[nH]ncc12` [Positive control, allopurinol], in assay [1] (intragastric, 30 days), the blood creatinine was 30.2 ± 5.7 µmol/L and the serum urea nitrogen is 23.3 ± 4.1 mmol/L. Moreover, the Blood uric acid in assay [1] (one intragastric administration per day for 30 days, serum 3 hours after last administration) was 134.8 ± 19.9 µmol/L. Further, the XOD activity in assay [2] is 19.8 ± 2.2 U/L.
